These results are taken from patent US12479858B2, “Macrocyclic compounds as sting agonists and methods and uses thereof” (Lupin Limited, priority 2019, dated 2025).

Molecules are shown by their SMILES. Where a name gives a salt, the structure may show the parent alone.

This assay has as its target T1, Human STING (Homo sapiens, UniProt Q86WV6, G230A/H232R/R293Q/R71H).
T1 construct: using human THP1-Blue™ ISG SEAP based reporter cell line (Invivogen); host or cells: THP1-Blue ISG cells (human monocytic THP-1 derived SEAP reporter line)
The experiment in a line: Stimulation of human STING signaling in THP1 cell line (THP1-Blue ISG SEAP reporter). In kind it is cell-based. The following applies: THP1-Blue ISG cells, SEAP activity, 18-20 hours. The protocol: Biological Assay—Stimulation of Human STING Signaling in THP1 Cell Line
Compounds were tested for their STING activation potential using human THP1-Blue™ ISG SEAP based reporter cell line (Invivogen). Briefly, THP1-Blue ISG cells (100,000 cells/well) in 96 well plate were treated with varying concentrations of test and reference compounds and incubated at 37° C. with 5% CO2 for 18-20 hours. The control untreated cells were also set up. Post incubation, the cell supernatant was tested for SEAP (Secreted Embryonic Alkaline Phosphatase) activity using the QuantiBlue™ substrate reagent (Invivogen). The formation of blue coloured product was quantified by measuring absorbance at wavelength of 620 nm using PheraStar/Tecan reader. The average of duplicate readouts for each data point was plotted in GraphPad prism 6 against the concentration of test or reference compound to calculate EC50 value. The fold of SEAP induction or increase in luminescence at different data points was estimated against the un-stimulated cell control set.

T1 sequence (Q86WV6 whole entry R71H/G230A/H232R/R293Q): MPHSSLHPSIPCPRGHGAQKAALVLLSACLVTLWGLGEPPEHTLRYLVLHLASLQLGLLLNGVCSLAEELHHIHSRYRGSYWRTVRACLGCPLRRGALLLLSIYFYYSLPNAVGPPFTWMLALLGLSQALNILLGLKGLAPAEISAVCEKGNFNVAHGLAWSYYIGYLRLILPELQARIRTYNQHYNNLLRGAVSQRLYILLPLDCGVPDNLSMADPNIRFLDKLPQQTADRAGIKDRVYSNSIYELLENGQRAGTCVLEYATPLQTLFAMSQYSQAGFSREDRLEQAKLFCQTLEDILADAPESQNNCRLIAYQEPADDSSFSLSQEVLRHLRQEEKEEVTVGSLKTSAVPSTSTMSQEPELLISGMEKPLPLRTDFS

Consider `CCn1nc(C)cc1C(=O)Nc1nc2cc(C(N)=O)cc3c2n1C/C=C/Cn1c(NC(=O)c2cc(C)nn2CC)nc2cc(C(=O)N[C@H]4CC[C@@H](C(=O)O)CC4)cc(c21)OCCCO3` [Compound 1, (1S,4S)-4-((E)-12-carbamoyl-1,15-bis(1-ethyl-3-methyl-1H-pyrazole-5-carboxamido)-8,9,16,19-tetrahydro-7H-6,10-dioxa-2,14,15a,19a-tetraazacyclopentadeca[3,2,1-cd:8,9,10-c′d′]diindene-4-carboxamido)cyclohexane-1-carboxylic acid], for which the concentration for a half-maximal effect (EC50) is 11 to 100 nM.

Molecule `CCn1nc(C)cc1C(=O)Nc1nc2cc(C(N)=O)cc3c2n1C/C=C/Cn1c(NC(=O)c2cc(C)nn2CC)nc2cc(C(=O)N[C@H]4CC[C@@H](c5nnn[nH]5)CC4)cc(c21)OCCCO3` [Compound 7, (E)-N-((1S,4S)-4-(1H-tetrazol-5-yl)cyclohexyl)-1,15-bis(1-ethyl-3-methyl-1H-pyrazole-5-carboxamido)-8,9,16,19-tetrahydro-7H-6,10-dioxa-2,14,15a,19a-tetraazacyclopentadeca[3,2,1-cd:8,9,10-c′d′]diindene-4,12-dicarboxamide] returned a half-maximal effective concentration (EC50) of 11 to 100 nM.

Turning to `CCn1nc(C)cc1C(=O)Nc1nc2cc(C(N)=O)cc3c2n1C/C=C/Cn1c(NC(=O)c2cc(C)nn2CC)nc2cc(C(=O)NCCCc4nnn[nH]4)cc(c21)OC[C@H](N1C2CCC1COC2)CO3` [Compound 17, (8R,E)-N4-(3-(1H-tetrazol-5-yl)propyl)-8-(3-oxa-8-azabicyclo[3.2.1]octan-8-yl)-1,15-bis(1-ethyl-3-methyl-1H-pyrazole-5-carboxamido)-8,9,16,19-tetrahydro-7H-6,10-dioxa-2,14,15a,19a-tetraazacyclopentadeca[3,2,1-cd:8,9,10-c′d′]diindene-4,12-dicarboxamide sodium salt], the EC50 is 11 to 100 nM.

As for `CCn1nc(C)cc1C(=O)Nc1nc2cc(C(N)=O)cc3c2n1C/C=C/Cn1c(NC(=O)c2cc(C)nn2CC)nc2cc(C(=O)NCCCn4cc(C(=O)O)cn4)cc(c21)OC[C@H](N1C2CCC1COC2)CO3` [Compound 19, 1-(3-((8R,E)-8-(3-oxa-8-azabicyclo[3.2.1]octan-8-yl)-12-carbamoyl-1,15-bis(1-ethyl-3-methyl-1H-pyrazole-5-carboxamido)-8,9,16,19-tetrahydro-7H-6,10-dioxa-2,14,15a,19a-tetraazacyclopentadeca[3,2,1-cd:8,9,10-c′d′]diindene-4-carboxamido)propyl)-1H-pyrazole-4-carboxylic acid sodium salt], the EC50 fell in the range of 11 to 100 nM.

As for `CCn1nc(C)cc1C(=O)Nc1nc2cc(C(N)=O)cc3c2n1C/C=C/Cn1c(NC(=O)c2cc(C)nn2CC)nc2cc(C(=O)N[C@H]4CC[C@H](C(=O)O)CC4)cc(c21)OCC(N1CC2CCC(C1)O2)CO3` (stereo partly drawn) [Compound 20, (1R,4R)-4-((E)-8-(8-oxa-3-azabicyclo[3.2.1]octan-3-yl)-12-carbamoyl-1,15-bis(1-ethyl-3-methyl-1H-pyrazole-5-carboxamido)-8,9,16,19-tetrahydro-7H-6,10-dioxa-2,14,15a,19a-tetraazacyclopentadeca[3,2,1-cd:8,9,10-c′d′]diindene-4-carboxamido)cyclohexane-1-carboxylic acid], the EC50 fell in the range of 11 to 100 nM.

`CCn1nc(C)cc1C(=O)Nc1nc2cc(C(N)=O)cc3c2n1C/C=C/Cn1c(NC(=O)c2cc(C)nn2CC)nc2cc(C(=O)N[C@H]4CC[C@H](c5nnn[nH]5)CC4)cc(c21)OCC(N1CC2CCC(C1)O2)CO3` (stereo partly drawn) [Compound 22, (E)-N-((1R,4R)-4-(1H-tetrazol-5-yl)cyclohexyl)-8-(8-oxa-3-azabicyclo[3.2.1]octan-3-yl)-1,15-bis(1-ethyl-3-methyl-1H-pyrazole-5-carboxamido)-8,9,16,19-tetrahydro-7H-6,10-dioxa-2,14,15a,19a-tetraazacyclopentadeca [3,2,1-cd:8,9,10-c′d′]diindene-4,12-dicarboxamide] registered an EC50 of 11 to 100 nM.
